# Data as given in patent US20220395553A1, “CXCR4 ANTAGONIST PEPTIDES” (COHBAR, INC., priority 2019, published 2022).
# Square brackets hold non-standard residues; d marks the D form. Peptide text beside a SMILES is read from it.
# What was measured:
# Jurkat cells = assay: CXCL12 mediated cell migration, Jurkat cells; type: cell-based, human; details: 1.1 μM test article, 100 ng/ml CXCL12, 1 hour
# Procedure: The assay was performed following a protocol similar to that described by Peng, et al., Mol Cancer Ther., 14480-90 (2015), incorporated herein by reference. Peptides were initially prepared as 1 mM stock in H2O and tested at a final concentration of 1.1 μM. […] Jurkat cells were resuspended in serum free media (RPMI+GlutaMax; Gibco/Thermo Fisher Scientific; Gaithersburg, Md.) containing 0.5% bovine serum albumin at density of 5×10^6 cells/ml. […] Cells (250,000 cells in 50 μl) supplemented with the appropriate treatments were seeded on to the upper chamber of a 96-well 5 μm HTS Transwell filter insert (Corning/Costar; Tewksbury, Mass.). […] Filter inserts were immediately placed on top of 96-well receiver trays and placed at 37° C. in a humidified atmosphere of 5% CO2/95% air for 1 hour. Following the 1 hour incubation period the filter inserts were carefully removed and the migration of cells across the filter into the bottom chamber (receiver wells) was determined by measuring ATP levels using Cell TiterGlo 2.0, according to manufacturer's instructions (Promega; Madison, Wis.); luminescence was measured using a Cytation 3 plate reader (BioTek; Winooski, Vt.).
# [1] = system: CXCR4/CXCL12 induced p-MEK; assay: CXCR4/CXCL12 induced p-MEK in Jurkat cells (ELISA); type: cell-based, human; details: 5 nM CXCL12, 5 min
# Summary of the method: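 Jurkat cells in RPMI+GlutaMax containing 10% FBS and 1% penicillin/streptomycin, fresh or conditioned, were resuspended at 2×10^6 cells/ml and […] aliquots placed in tubes. After a 5 min stimulation they were pelleted, rinsed with HBSS and lysed with PMSF and protease/phosphatase inhibitors. Phospho-MEK1 (Ser217/221) was quantified by sandwich ELISA with absorbance read at 450 nm.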
# human CXCR4 [2] = molecular target: T1, human CXCR4 (Homo sapiens, UniProt P61073); assay: IC50 for inhibition of CXCR4 activation, β-Arrestin recruitment (Example 22); type: cell-based; parameters: host or cells: C2C12 (mouse myoblast) CXCR4 β-Arrestin PathHunter cell line
# Summary of the method: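 C2C12 cells co-expressing ProLink-tagged human CXCR4 and Enzyme Acceptor-tagged β-arrestin (PathHunter). Peptides tested in 10-point, 3-fold dilutions from 1 μM (1 μM–0.05 nM). Recruitment read by chemiluminescent enzyme-fragment complementation after 90 min incubation.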
# human CXCR4 [3] = molecular target: T1, human CXCR4; assay: CXCR4/CXCL12 binding, HTRF format, single concentration (Example 23); parameters: host or cells: HEK293 (Tag-lite CXCR4 cells, frozen aliquots, transient expression); details: 15 nM CXCR4R fluorescent probe, 3 hours, HEK293 Tag-lite CXCR4 cells
# Summary of the method: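 Tag-lite CXCR4 cells were exposed to peptide at 400 nM final with 15 nM (EC80) fluorescent CXCR4 probe for 3 h at room temperature. HTRF was read, and the 665/620 nm ratio ×10,000 measured probe bound to terbium-labelled receptor.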
# T1 sequence (P61073 whole entry, the tested form may be a part): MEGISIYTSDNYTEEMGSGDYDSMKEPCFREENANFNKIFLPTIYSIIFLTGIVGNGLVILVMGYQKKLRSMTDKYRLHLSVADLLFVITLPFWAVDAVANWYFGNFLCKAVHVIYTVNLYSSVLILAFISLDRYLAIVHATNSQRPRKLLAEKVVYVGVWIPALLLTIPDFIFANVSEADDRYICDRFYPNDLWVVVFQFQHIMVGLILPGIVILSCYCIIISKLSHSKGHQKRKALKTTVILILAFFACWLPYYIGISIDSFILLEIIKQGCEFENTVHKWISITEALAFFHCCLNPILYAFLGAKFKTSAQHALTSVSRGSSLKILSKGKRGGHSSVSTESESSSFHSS
Compound,Percent Inhibition of CXCL12 Mediated Migration (1.1 μM Test Article) (Jurkat cells) [%],Percent Inhibition of CXCR4/CXCL12 Induced p-MEK (100 nM Test Article) [1] [%],Percent Inhibition of CXCR4/CXCL12 Induced p-MEK (1 μM Test Article) [1] [%],IC50 (human CXCR4 [2]) [nM],Percent Inhibition of CXCR4/CXCL12 Binding (400 nM peptide) (human CXCR4 [3]) [%]
CC(C)C[C@H](NC(=O)[C@H](CO)NC(=O)[C@H](CO)NC(=O)[C@H](CCCNC(=N)N)NC(=O)[C@@H](C)NC(=O)[C@H](CO)NC(=O)[C@H](Cc1c[nH]cn1)NC(=O)[C@H](Cc1c[nH]cn1)NC(=O)[C@H](Cc1ccc(O)cc1)NC(=O)[C@H](CCCNC(=N)N)NC(=O)[C@H](CC(=O)O)NC(=O)[C@@H](N)CC(C)C)C(=O)N[C@@H](CCCNC(=N)N)C(=O)N1CCC[C@H]1C(=O)N[C@@H](Cc1ccc(O)cc1)C(=O)N[C@H](C(=O)N[C@@H](CCCCN)C(=O)O)[C@@H](C)O [compound 8] (H-LDRYHHS[dA]RSSLRPYTK-OH; N-terminus and C-terminus assumed),94,32,88,3,86
CC(C)C[C@H](NC(=O)[C@H](CO)NC(=O)[C@H](CO)NC(=O)[C@H](CCCNC(=N)N)NC(=O)[C@@H](NC(=O)[C@H](CO)NC(=O)[C@H](Cc1c[nH]cn1)NC(=O)[C@H](Cc1c[nH]cn1)NC(=O)[C@H](Cc1ccc(O)cc1)NC(=O)[C@H](CCCNC(=N)N)NC(=O)[C@H](CCC(=O)O)NC(=O)[C@@H](N)CC(C)C)C(C)C)C(=O)N[C@@H](CCCNC(=N)N)C(=O)N1CCC[C@H]1C(=O)N[C@@H](Cc1ccc(O)cc1)C(=O)N[C@H](C(=O)O)[C@@H](C)O [compound 18] (H-LERYHHSVRSSLRPYT-OH; N-terminus and C-terminus assumed),66,45,78,,57
CC(C)C[C@H](NC(=O)[C@H](CO)NC(=O)[C@H](CO)NC(=O)[C@H](CCCNC(=N)N)NC(=O)[C@@H](NC(=O)[C@H](CO)NC(=O)[C@H](Cc1c[nH]cn1)NC(=O)[C@H](Cc1c[nH]cn1)NC(=O)[C@H](Cc1ccccc1)NC(=O)[C@H](CCCNC(=N)N)NC(=O)[C@H](CCCNC(=N)N)NC(=O)[C@@H](N)CC(C)C)C(C)C)C(=O)N[C@@H](CCCNC(=N)N)C(=O)N1CCC[C@H]1C(=O)N[C@@H](Cc1ccc(O)cc1)C(=O)N[C@H](C(=O)N[C@@H](CCCCN)C(=O)O)[C@@H](C)O [compound 53] (H-LRRFHHSVRSSLRPYTK-OH; N-terminus and C-terminus assumed),59,62,98,3,5
CC(C)C[C@H](NC(=O)[C@H](CO)NC(=O)[C@@H](NC(=O)[C@H](CCCNC(=N)N)NC(=O)[C@@H](NC(=O)[C@H](CO)NC(=O)[C@H](Cc1c[nH]cn1)NC(=O)[C@H](Cc1c[nH]cn1)NC(=O)[C@H](Cc1ccc(O)cc1)NC(=O)[C@H](CCCNC(=N)N)NC(=O)[C@H](CCCNC(=N)N)NC(=O)[C@@H](N)CC(C)C)C(C)C)[C@@H](C)O)C(=O)N[C@@H](CCCNC(=N)N)C(=O)N1CCC[C@H]1C(=O)N[C@@H](Cc1ccc(O)cc1)C(=O)N[C@H](C(=O)N[C@@H](CCCCN)C(=O)O)[C@@H](C)O [compound 70] (H-LRRYHHSVRTSLRPYTK-OH; N-terminus and C-terminus assumed),21,57,93,,11
CC(C)C[C@H](NC(=O)[C@H](CO)NC(=O)[C@H](CO)NC(=O)[C@H](CCCNC(=N)N)NC(=O)[C@@H](NC(=O)[C@H](CO)NC(=O)[C@H](Cc1c[nH]cn1)NC(=O)[C@H](Cc1c[nH]cn1)NC(=O)[C@H](Cc1ccc(O)cc1)NC(=O)[C@H](CCCNC(=N)N)NC(=O)[C@H](CCCNC(=N)N)NC(=O)[C@@H](N)CC(C)C)C(C)C)C(=O)N[C@@H](CCCNC(=N)N)C(=O)N1CCC[C@H]1C(=O)N[C@@H](Cc1ccc(O)cc1)C(=O)N[C@@H](CO)C(=O)N[C@@H](CCCCN)C(=O)O [compound 72] (H-LRRYHHSVRSSLRPYSK-OH; N-terminus and C-terminus assumed),,8,86,5,6
CC(C)C[C@H](NC(=O)[C@H](CO)NC(=O)[C@@H](NC(=O)[C@H](CCCNC(=N)N)NC(=O)[C@@H](NC(=O)[C@H](CO)NC(=O)[C@H](Cc1c[nH]cn1)NC(=O)[C@H](Cc1c[nH]cn1)NC(=O)[C@H](Cc1ccc(O)cc1)NC(=O)[C@H](CCCNC(=N)N)NC(=O)[C@H](CCC(=O)O)NC(=O)[C@@H](N)CC(C)C)C(C)C)[C@@H](C)O)C(=O)N[C@@H](CCCNC(=N)N)C(=O)N1CCC[C@H]1C(=O)N[C@@H](Cc1ccc(O)cc1)C(=O)N[C@H](C(=O)N[C@@H](CCCCN)C(=O)O)[C@@H](C)O [compound 73] (H-LERYHHSVRTSLRPYTK-OH; N-terminus and C-terminus assumed),82,47,96,4,87
CC(C)C[C@H](NC(=O)[C@H](CO)NC(=O)[C@@H](NC(=O)[C@H](CCCNC(=N)N)NC(=O)[C@@H](C)NC(=O)[C@H](CO)NC(=O)[C@H](Cc1c[nH]cn1)NC(=O)[C@H](Cc1c[nH]cn1)NC(=O)[C@H](Cc1ccc(O)cc1)NC(=O)[C@H](CCCNC(=N)N)NC(=O)[C@H](CCC(=O)O)NC(=O)[C@@H](N)CC(C)C)[C@@H](C)O)C(=O)N[C@@H](CCCNC(=N)N)C(=O)N1CCC[C@H]1C(=O)N[C@@H](Cc1ccc(O)cc1)C(=O)N[C@H](C(=O)N[C@@H](CCCCN)C(=O)O)[C@@H](C)O [compound 76] (H-LERYHHS[dA]RTSLRPYTK-OH; N-terminus and C-terminus assumed),,5,44,6,75
CC(C)C[C@H](NC(=O)[C@@H](NC(=O)[C@H](CO)NC(=O)[C@H](CCCNC(=N)N)NC(=O)[C@@H](C)NC(=O)[C@H](CO)NC(=O)[C@H](Cc1c[nH]cn1)NC(=O)[C@H](Cc1c[nH]cn1)NC(=O)[C@H](Cc1ccc(O)cc1)NC(=O)[C@H](CCCNC(=N)N)NC(=O)[C@H](CCC(=O)O)NC(=O)[C@@H](N)CC(C)C)[C@@H](C)O)C(=O)N[C@@H](CCCNC(=N)N)C(=O)N1CCC[C@H]1C(=O)N[C@@H](Cc1ccc(O)cc1)C(=O)N[C@H](C(=O)N[C@@H](CCCCN)C(=O)O)[C@@H](C)O [compound 77] (H-LERYHHS[dA]RSTLRPYTK-OH; N-terminus and C-terminus assumed),,7,68,4,77
CC(C)C[C@H](NC(=O)[C@H](CO)NC(=O)[C@H](CO)NC(=O)[C@H](CCCNC(=N)N)NC(=O)[C@@H](C)NC(=O)[C@H](CO)NC(=O)[C@H](Cc1c[nH]cn1)NC(=O)[C@H](Cc1c[nH]cn1)NC(=O)[C@H](Cc1ccc(O)cc1)NC(=O)[C@H](CCCNC(=N)N)NC(=O)[C@H](CCC(=O)O)NC(=O)[C@@H](N)CC(C)C)C(=O)N[C@@H](CCCNC(=N)N)C(=O)NCC(=O)N[C@@H](Cc1ccc(O)cc1)C(=O)N[C@H](C(=O)N[C@@H](CCCCN)C(=O)O)[C@@H](C)O [compound 81] (H-LERYHHS[dA]RSSLRGYTK-OH; N-terminus and C-terminus assumed),,−16,20,3,81
